US20090082368A1, “METHODS OF MODULATING NEUROTROPHIN-MEDIATED ACTIVITY” (PainCeptor Pharma Corporation, priority 2007, published 2009)
Read-outs that look alike come from different tables or passages of the source.

Key:
[1] = system: NGF-induced ERK phosphorylation; experiment: Inhibition of NGF-induced Erk 1/2 phosphorylation (pERK); type: cell-based; settings: Rattus norvegicus, Table 2
Procedure: This assay is useful for establishing that the compounds of the invention are functional NGF antagonists, not receptor agonists (an agonist could conceivably block NGF binding but actually activate the receptor). Erk 1/2 is a kinase activated down stream of TrkA and is a well studied member of the NGF-induced signal transduction cascade.
PC12 cells expressing TrkA and p75 are acutely exposed to 1 ng/mL NGF (15 min; 37° C.; 5% CO2) that is pre-incubated (30 min; room temperature) with or without the compounds. Cells are lysed in Laemmli sample buffer (for SDS-PAGE) or a lysis buffer containing Triton X-100 (for ELISA). Following SDS-PAGE, proteins are electroblotted onto nitrocellulose and immunoprobed for phosphorylated Erk 1 and 2. Blocking and primary antibody incubations of immunoblots are performed in Tris-buffered saline-Tween (10 mM Tris, pH 8.0, 150 mM NaCl, and 0.2% Tween 20) supplemented with 5% (w/v) bovine serum albumin (BSA); secondary antibody incubations are performed in 5% (w/v) dried skim milk powder. Immunoreactive bands are detected by chemiluminescence.
A quantitative method to detect phosphorylated Erk 1/2 by immunofluorescence is also used. Neuroscreen-1 cells are grown in a 96 well plate. NGF preincubated with or without the compounds for 30 minutes, is added to the cells for 5 minutes at 37° C. Cells are then fixed and stained with an antibody against phosphor-ERK 1/2. A fluorescently labeled secondary antibody is used to show the presence of phosphorylated ERK 1/2. Quantitative results are generated by photographing the wells with light of the appropriate wavelength, followed by software based image analysis.

[2] = system: spontaneous pain evoked by intraplantar injection of formalin in the rat; experiment: Formalin model of acute tonic pain; type: in vivo; settings: for pain intensity as evaluated by the licking behavior: s.c. 30 min prior to formalin, 2E 0.1-10 mg/kg, 1G 0.4-20 mg/kg, 47G 10-300 μmol/kg, 50G 30 and 100 μmol/kg
Procedure: Male Sprague-Dawley rats are housed together in groups of three animals under standard conditions with unrestricted access to food and water. All experiments are conducted according to the ethical guidelines for investigations of experimental pain in conscious animals (Zimmerman, 1983).
Assessment of formalin-induced flinching behavior in normal, uninjured rats (body weight 200-300 g) is made after formalin (2.5% in saline, 50-100 μl, s.c.) is injected into the plantar surface of the hindpaw using a 27G needle. Rats are pretreated with test compounds either administered intravenously (IV), by subcutaneous injection (SC) or by orally (PO).
Nociceptive behavior is determined manually every 5 min by measuring the amount of time spent in each of four behavioral categories: 0, treatment of the injected hindpaw is indistinguishable from that of the contralateral paw; 1, the injected paw has little or no weight placed on it; 2, the injected paw is elevated and is not in contact with any surface; 3, the injected paw is licked, bitten, or shaken. A weighted nociceptive score, ranging from 0 to 3 is calculated by multiplying the time spent in each category by the category weight, summing these products, and dividing by the total time for each 5 min block of time. (Coderre et al., Pain 1993; 54: 43). On the basis of the resulting response patterns, […] of nociceptive behavior are identified and scored: first phase (P1; 0-5 min), interphase (Int; 6-15 min), second phase (P2; […]), phase 2A (P2A; 16-40 min) and phase 2B (P2B; 41-60 min).
Statistical analysis is performed using the Prism™ 4.01 software package (GraphPad, San Diego, Calif., USA). The difference in response levels between treatment groups and control vehicle group is analyzed using an ANOVA followed by Bonferroni's method for post-hoc pair-wise comparisons. A p value<0.05 is considered to be significant.

[3] = system: NGF receptors on PC12 cells (TrkA+p75); experiment: NGF binding (125I-NGF) using PC12 cells; set-up: species or system rat
Procedure: NGF binding was evaluated using methods familiar to those who are skilled in the art. Briefly, cells expressing one or both NGF receptors (PC12: TrkA+p75; A875: p75 alone; HEK/CHO_trkA: TrkA alone) were harvested by replacing the medium with the cell dissociation buffer (Amersham) and incubating at 37° C. for 15 min. […] For most compounds, multiple dose-response curves were generated.
The IC50 data shown in Tables A-J were acquired using the procedure described herein using PC12 cells.

PC12 cells = experiment: Inhibition of NGF-induced neurite outgrowth; type: cell-based; settings: Rattus norvegicus, PC-12, 96 h, Table 3, 4 days exposure to NGF
Procedure: This assay is run as a further functional marker of NGF antagonism and takes advantage of the differentiation of PC12 cells (neurite outgrowth) induced by NGF. Cultures of PC12 cells are grown on Terasaki plates pre-coated with poly-D-lysine. Cells are exposed to NGF (1-50 (preferably 5) ng/ml) to induce neurite outgrowth as described elsewhere [LA Greene & AS Tischler, Establishment of a noradrenergic clonal line of rat adrenal pheochromocytoma cells which respond to nerve growth factor, Proc Natl Acad Sci USA. 1976 July; 73(7): 2424-2428]. In addition to NGF, cells are exposed to varying concentration of the compounds or vehicle. Following 4 days of exposure to NGF in the presence or absence of compound, neurite outgrowth is quantified. A neurite is scored if its caliber from origin to terminal is approximately the same and the length is equal to or greater than 1.5 the cell body diameter. The number of neurite bearing cells per total number of viable cells is calculated for each condition; the number of cells with neurites in the presence of NGF (without compound exposure) is considered to represent maximal (100%) outgrowth, to which the inhibitory effect of compounds of the invention on NGF-induced outgrowth is compared.

[4] = system: hyperalgesia from acute paw inflammation caused by intraplantar λ-carrageenan; experiment: Carrageenan model (inflammatory pain); type: in vivo; settings: rat, SC 10 min pre- and 3 h post-carrageenan, tested 4 h post; 1G 20 mg/kg, 50G 2×105 mg/kg
Procedure: Acute inflammatory hyperalgesia is induced in rats by unilateral injection of 150 μl of a 3% solution of λ-carrageenan into the plantar surface of the left hind paw 3-5 hours prior to testing. Thermal hyperalgesia, mechanical allodynia, mechanical hyperalgesia, weight bearing asymmetry and paw inflammation are determined. Rats are pretreated with test compounds either administered intravenously (IV), by subcutaneous injection (SC) or by oral gavage (PO). Thermal nociceptive thresholds are determined according to the method described elsewhere (Hargreaves et al., 1988). Briefly, through the glass surface, a radiant heat source (8V, 50 W projector bulb) is focused onto the plantar surface of the hind paw. The rat's paw-withdrawal latency to this stimulus is recorded to the nearest 0.1 s. Each latency score is an average of three trials, which are separated by at least 5 min. In all rats, both the injured and uninjured hind paws are similarly tested, allowing direct comparisons between inflamed and non-inflamed paws. Mechanical hyperalgesia is determined by measuring the difference of withdrawal thresholds in response to increasing pressure in the inflamed vs contralateral paw using the Randall-Sellito Paw pressure meter (IITC Life Science) (Randall L O and Sellito J J., 1957). Briefly, rats are held in a contention jacket suspended by a stand and allowed to acclimate for 10 min. […]

[5] = Table 2, read-out: NGF Binding Assay IC50
[6] = Table J (Formula VIII), NGF binding, PC12 cells, read-out: IC50

| SMILES | IC50 [1] [µM] | pain intensity as evaluated by the licking behavior [2] | ED50 ([2]; sc, given 30 min prior to formalin injection, read-out: ED50, number of licking and biting episodes in phase IIa of the formalin test) [µmol/kg] | IC50 [3, 5] [µM] | IC50 ([3]; Table 3, read-out: NGF Binding Assay IC50) [µM] | IC50 [3, 6] [µM] | IC50 (PC12 cells) [µM] | mechanical hyperalgesia (Randall-Sellito) [4] | thermal hyperalgesia (Hargreaves' assay) [4] |
| --- | --- | --- | --- | --- | --- | --- | --- | --- | --- |
| Cn1nnnc1-c1cc2c3c(cccc3c1)C(=O)N(CCCC(=O)O)C2=O [Compound 47G, 4-[5-(1-Methyl-1H-tetrazol-5-yl)-1,3-dioxo-1H-benzo[de]isoquinolin-2(3H)-yl]butanoic acid] | 15 to 25 | dose-dependent reduction of the pain intensity | ~100 | < 10 | < 10 | < 10 | 0.1 to 5 |  |  |
| O=C(O)CCCN1C(=O)c2cccc3cc(-n4cnnn4)cc(c23)C1=O [Compound 50G, 4-[1,3-Dioxo-5-(1H-tetrazol-1-yl)-1H-benzo[de]isoquinolin-2(3H)-yl]butanoic acid] | 5 to 15 | dose-dependent reduction of the pain intensity |  | < 10 |  | < 10 |  | marginally improving the mechanical hyperalgesia | significantly reversed the thermal hyperalgesia |
